Test results published in US9107415B2, “2-(substituted-phenyl)-cyclopentane-1,3-dione compounds, and derivatives thereof” (Syngenta Limited, priority 2011, dated 2015).

Tests used:
Format in all cases: in vivo
[1] = test system: Echinochloa crus-galli (ECHCG); assay: Biological Example 1 glasshouse screen, post-emergence herbicidal activity; details: 312 h, application rate 250 g/ha, evaluated after 13 days, read-out: ECHCG percentage phytotoxicity
Procedure, shortened: (§1)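 Pot-grown seedlings sprayed 1 day after sowing (pre-emergence) or after 8 days' growth (post-emergence) with active ingredient in acetone/water (50:50) plus 0.5% Tween 20; glasshouse at 24/16°C day/night, 14 h light, 65% humidity. Visual % phytotoxicity (0 = no damage, 100 = total damage) scored 13 days after application.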

[2] = test system: Alopecurus myosuroides (ALOMY); assay: as above; details: 312 h, application rate 250 g/ha, evaluated after 13 days, read-out: ALOMY percentage phytotoxicity
Procedure, shortened: as §1

[3] = test system: Ipomoea hederacea (IPOHE); assay: as above; details: application rate 250 g/ha, evaluated after 13 days
Experimental: (§2) Seeds of a variety of test species were sown in standard soil in pots. After cultivation for one day (pre-emergence) or after 8 days cultivation (post-emergence) under controlled conditions in a glasshouse (at 24/16°C., day/night; 14 hours light; 65% humidity), the plants were sprayed with an aqueous spray solution derived from the formulation of the “technical”(i.e. unformulated) active ingredient in acetone/water (50:50) solution containing 0.5% Tween 20 (polyoxyethylene sorbitan monolaurate, CAS Registry Number 9005-64-5). The test plants were then grown in a glasshouse under controlled conditions in a glasshouse (at 24/16°C., day/night; 14 hours light; 65% humidity) and watered twice daily. After 13 days for pre- or post-emergence, the test was evaluated visually, and an assessed percentage phytotoxicity score given for each herbicidal application on each plant/weed species (with 100%=total damage to plant; 0%=no damage to plant).
(§3) Test plants: Alopecurus myosuroides (ALOMY), Setaria faberi (SETFA), Echinochloa crus-galli (ECHCG), Solanum nigrum (SOLNI), Amaranthus retroflexus (AMARE) and Ipomoea hederacea (IPOHE). ALOMY, SETFA and ECHCG are grassy monocotyledonous weeds. SOLNI, AMARE and IPOHE are dicotyledonous (broadleaved) weeds.

[4] = test system: Solanum nigrum (SOLNI); assay: as above; details: application rate 250 g/ha, evaluated after 13 days
Experimental: as §2, §3

[5] = test system: Setaria faberi (SETFA); assay: as above; details: application rate 250 g/ha, evaluated after 13 days
Experimental: as §2, §3

[6] = test system: Amaranthus retroflexus (AMARE); assay: as above; details: application rate 250 g/ha, evaluated after 13 days
Experimental: as §2, §3

[7] = test system: Echinochloa crus-galli (ECHCG); assay: Biological Example 2 post-emergence herbicidal activity (comparative data); details: 312 h, read-out: ECHCG percentage phytotoxicity; for pest or weed control at 15.625 g/ha: 15.625 g/ha application rate; for pest or weed control at 62.5 g/ha: 62.5 g/ha application rate
Procedure, shortened: (§4)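 Post-emergence spray after 8 days' glasshouse growth (24/16°C day/night, 14 h light, 65% humidity), using technical active ingredient in acetone/water (50:50) with 0.5% Tween 20. Visual phytotoxicity scored 13 days later, 0% = no damage to 100% = total damage.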

[8] = test system: Alopecurus myosuroides (ALOMY); assay: as above; details: 312 h, read-out: ALOMY percentage phytotoxicity; for pest or weed control at 15.625 g/ha: 15.625 g/ha application rate; for pest or weed control at 62.5 g/ha: 62.5 g/ha application rate
Procedure, shortened: as §4

[9] = test system: Setaria faberi (SETFA); assay: as above
Procedure, shortened: as §4

[10] = test system: Echinochloa crus galli, barnyardgrass (ECHCG); assay: Biological Example 3 glasshouse screen, post-emergence herbicidal activity; details: 360 h, 15 DAA, no safener, read-out: ECHCG percentage phytotoxicity
Procedure, shortened: (§5)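 Selectivity screen without safener: 12-day-old plants sprayed post-emergence with acetone/IF50-formulated compound plus 0.2% v/v X-77, kept in glasshouse, visually rated for % injury 15 days after application.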

[11] = test system: Lolium perenne, perennial ryegrass (LOLPE); assay: as above; details: 360 h, 15 DAA, no safener, read-out: LOLPE percentage phytotoxicity
Procedure, shortened: as §5

[12] = test system: Alopecurus myosuroides, blackgrass (ALOMY); assay: as above; details: 360 h, 15 DAA, no safener, read-out: ALOMY percentage phytotoxicity
Procedure, shortened: as §5

[13] = test system: Avena fatua, wild oats (AVEFA); assay: as above; details: 360 h, 15 DAA, no safener, read-out: AVEFA percentage phytotoxicity
Procedure, shortened: as §5

[14] = test system: Triticum aestivum, wheat (TRZAW); assay: Biological Example 3 glasshouse screen, post-emergence, phytotoxicity on wheat; details: 360 h, 15 DAA, no safener, read-out: TRZAW percentage phytotoxicity
Procedure, shortened: as §5

[15] = test system: Echinochloa crus-galli (ECHCG); assay: Biological Example 1 glasshouse screen, pre-emergence herbicidal activity; details: 312 h, application rate 250 g/ha, evaluated after 13 days, read-out: ECHCG percentage phytotoxicity
Procedure, shortened: as §1

[16] = test system: Alopecurus myosuroides (ALOMY); assay: as above; details: 312 h, application rate 250 g/ha, evaluated after 13 days, read-out: ALOMY percentage phytotoxicity
Procedure, shortened: as §1

[17] = test system: Ipomoea hederacea (IPOHE); assay: as above; details: application rate 250 g/ha, evaluated after 13 days
Experimental: as §2, §3

[18] = test system: Solanum nigrum (SOLNI); assay: as above; details: application rate 250 g/ha, evaluated after 13 days
Experimental: as §2, §3

[19] = test system: Setaria faberi (SETFA); assay: as above; details: application rate 250 g/ha, evaluated after 13 days
Experimental: as §2, §3

[20] = test system: Amaranthus retroflexus (AMARE); assay: as above; details: application rate 250 g/ha, evaluated after 13 days
Experimental: as §2, §3

| Compound | pest or weed control at 250 g/ha [1] | pest or weed control at 250 g/ha [2] | IPOHE percentage phytotoxicity [3] | SOLNI percentage phytotoxicity [4] | SEFTA percentage phytotoxicity [5] | AMARE percentage phytotoxicity [6] | pest or weed control at 15.625 g/ha [7] | pest or weed control at 62.5 g/ha [7] | pest or weed control at 15.625 g/ha [8] | pest or weed control at 62.5 g/ha [8] | SETFA percentage phytotoxicity ([9]; 15.625 g/ha application rate) | SETFA percentage phytotoxicity ([9]; 62.5 g/ha application rate) | pest or weed control at 250 g/ha [15] | pest or weed control at 250 g/ha [16] | IPOHE percentage phytotoxicity [17] | SOLNI percentage phytotoxicity [18] | SEFTA percentage phytotoxicity [19] | AMARE percentage phytotoxicity [20] | other results |
| --- | --- | --- | --- | --- | --- | --- | --- | --- | --- | --- | --- | --- | --- | --- | --- | --- | --- | --- | --- |
| CC#Cc1cc(C)c(C2C(=O)C3C(C2=O)[C@H]2CC[C@@H]3O2)c(C)c1 (mixture of isomers) [Compound A-18, (1RS,2SR,6RS,7SR)-4-(2,6-dimethyl-4-prop-1-ynylphenyl)-10-oxatricyclo[5.2.1.0^2,6]decane-3,5-dione] | 100% | 100% | 80% | 80% | 100% | 30% | 100% | 100% | 90% | 100% | 70% | 90% | 100% | 100% | 80% | 80% | 100% | 100% | pest or weed control at 8 g/ha ([10]; application rate 8 g/ha): 80%; pest or weed control at 8 g/ha ([11]; application rate 8 g/ha): 80%; pest or weed control at 8 g/ha ([12]; application rate 8 g/ha): 70%; pest or weed control at 8 g/ha ([13]; application rate 8 g/ha): 30%; pest or weed control at 8 g/ha ([14]; application rate 8 g/ha): 40% |
| CC#Cc1cc(C)c(C2=C(O)CCC2=O)c(C)c1 [Compound A-1, 2-(2,6-Dimethyl-4-prop-1-ynylphenyl)cyclopentane-1,3-dione] | 100% | 90% | 30% | 10% | 70% | 0% | 70% | 100% | 20% | 80% | 40% | 60% | 100% | 100% | 0% | 0% | 80% | 0% | pest or weed control at 125 g/ha ([10]; application rate 125 g/ha): 80%; pest or weed control at 125 g/ha ([11]; application rate 125 g/ha): 50%; pest or weed control at 125 g/ha ([12]; application rate 125 g/ha): 70%; pest or weed control at 125 g/ha ([13]; application rate 125 g/ha): 0%; pest or weed control at 125 g/ha ([14]; application rate 125 g/ha): 40% |
